Patent publication US11234954B2, “Low-dose doxepin for treatment of sleep disorders in elderly patients” (Pernix Sleep, Inc., priority 2006, dated 2022)
Like-named read-outs stand apart in the source and are kept apart here.

How the values were obtained:
[1] = test system: patients aged 65 years or older with primary sleep maintenance insomnia; conditions: Per-Protocol N = 71; for WTDS, Mean (primary efficacy variable): WTDS typically expressed in minutes
Experimental: As used herein, the term “polysomnography” (PSG) refers a diagnostic test during which a number of physiologic variables are measured and recorded during sleep. Physiologic sensor leads are placed on the patient in order to record brain electrical activity, eye and jaw muscle movement, leg muscle movement, airflow, respiratory effort (chest and abdominal excursion), EKG and oxygen saturation. Information is gathered from all leads and fed into a computer and outputted as a series of waveform tracings which enable the technician to visualize the various waveforms, assign a score for the test, and assist in the diagnostic process. The primary efficacy variable, wake time during sleep (WTDS) and various secondary efficacy variables are all based on the PSG and are defined as follows.
“Wake Time During Sleep” (WTDS), typically expressed in minutes, is the number of wake events (epochs) after the onset of persistent sleep and prior to final awakening, divided by two. Each epoch is defined as a 30-second duration on the PSG recording.
“Wake Time After Sleep” (WTAS), typically expressed in minutes, is the number of epochs after the final awakening until the end of PSG recording (i.e., a wake epoch immediately prior to the end of the recording), divided by two.
“Wake After Sleep Onset” (WASO) is the sum of WTDS and WTAS.
“Latency to Persistent Sleep” (LPS), typically expressed in minutes, is the number of epochs from the beginning of the PSG recording (lights-out) to the start of the first 20 consecutive non-wake epochs, divided by two.
“Total Sleep Time” (TST), typically expressed in minutes, is the number of non-wake epochs from the beginning of the PSG recording to the end of the recording, divided by two.
“Sleep Efficiency” (SE) is the TST divided by the time in bed (8 hours), multiplied by 100 and expressed as a percentage. This also can be divided into SE for each third-of-the-night of sleep, reflecting the SE for each 160 minute time interval across the night. Finally, SE can be measured for individual hours during the night or sleep period, for example the final hour of the sleep period.
“NAASO” refers to the number of awakenings after sleep onset.
A randomized, multi-center, double-blind, placebo-controlled, four-period crossover, dose-response study was designed to assess the effects of doxepin (1 mg, 3 mg and 6 mg) compared with placebo in patients aged 65 years or older with primary sleep maintenance insomnia. Patients received a single-blind placebo for two consecutive nights during the PSG screening period, and double-blind study drug for two consecutive nights during each of the four treatment periods. […] Patients were allowed to leave the sleep center during the day after each PSG assessment was complete. A 5- or 12-day study drug-free interval separated each PSG assessment visit. The duration of study participation per patient was approximately 7 to 11 weeks.
Patients who qualified for study entry, based on the screening PSG assessments, were randomized to a treatment sequence using a Latin square design. A final study visit was performed for patients either after completion of the four treatment periods or upon discontinuation from the study. Efficacy assessments were made at each visit and safety assessments were performed throughout the study.
The main inclusion criteria were male and/or female patients, aged 65 years or older, in good general health with at least a 3-month history of Diagnostic and Statistical Manual of Mental Disorders, fourth Edition (DSM-IV)-defined primary insomnia, reporting each of the following on four of seven nights prior to PSG screening: ≤6.5 hours of total sleep time (TST), ≥60 min of wakefulness after sleep onset (WASO) and ≥20 min of latency to sleep onset (LSO). Doxepin HCl 1 mg, 3 mg and 6 mg capsules, and placebo capsules, were provided as a single dose for oral administration.
The primary efficacy assessment was WTDS.

[2] = test system: primary elderly insomnia patients with sleep maintenance difficulties; assay: Clinical Global Impressions (CGI), Phase III elderly study (Example 2); assay type: in vivo, human
Experimental: Subjective Variables: Subjective efficacy variables were subjective TST (sTST), subjective WASO (sWASO), LSO, subjective NAASO (sNAASO), and sleep quality. These variable were assessed using a questionnaire completed in the morning following each PSG recording night. Drowsiness, ability to function, and total nap time during the day were assessed using an evening questionnaire completed prior to PSG recording at Nights −6, −5, 1, 15, 29, 57, and 85. Other secondary subjective efficacy variables included the 2-item Clinical Global Impressions (CGI) scale for severity of illness and therapeutic effect completed by a clinician; the 5-item CGI scale pertaining to therapeutic effect completed by the subject; the Insomnia Severity Index (ISI) completed by the subject, and a subjective assessment of sTST, LSO, and sleep quality collected through the IVRS.
Clinical Global Impressions (CGI) ns (CGI) consist of two questions addressed to the clinician relating to the severity of illness and therapeutic effect of the study drug and five questions addressed to the patient relating to the therapeutic effect of the drug.

[3] = in vivo; cited from earlier work

## CN(C)CCC=C1c2ccccc2COc2ccccc21 (mixture of isomers) [Doxepin]
[1]; 1 mg
  LPS, Mean: 28.3 min
  NAASO, Mean: 12.3
  SE, Mean: 78.5%
  TST, Mean: 376.8 min
  WASO, Mean: 80.5 min
  WTAS, Mean: 10.4 min
  WTDS, Mean (primary efficacy variable): 70.1
[1]; 1 mg, listed as doxepin
  WTDS, Mean (primary efficacy variable): 70.1 (32.78)
[1]; 3 mg
  LPS, Mean: 23.7 min
  NAASO, Mean: 12.8
  SE, Mean: 81.0%
  TST, Mean: 388.8 min
  WASO, Mean: 72.3 min
  WTAS, Mean: 5.9 min
  WTDS, Mean (primary efficacy variable): 66.4
[1]; 3 mg, listed as doxepin
  WTDS, Mean (primary efficacy variable): 66.4 (31.56)
[1]; 6 mg
  LPS, Mean: 22.4 min
  NAASO, Mean: 12.5
  SE, Mean: 82.8%
  TST, Mean: 397.4 min
  WASO, Mean: 65.2 min
  WTAS, Mean: 5.0 min
  WTDS, Mean (primary efficacy variable): 60.2
[1]; 6 mg, listed as doxepin
  WTDS, Mean (primary efficacy variable): 60.2 (28.00)
[2]; Night 85, both doxepin treatment groups (1 mg, 3 mg)
  mean CGI (clinician-rated) severity of illness and therapeutic effect scores compared with placebo: statistically significant improvements
[2]; after 85 nights of treatment, both doxepin groups (1 mg, 3 mg)
  CGI (subject-rated) scale of therapeutic effect, all five parameters, compared with placebo: statistically significant improvements
[3]
  mean half-life: 17 h
